US9221823B2, “Crystal form of pyrrolidylthiocarbapenem derivative” (Shionogi & Co., Ltd., priority 2000, dated 2015)

Tests used:
Type in all cases: physicochemical
[1] = Potency test by liquid chromatography after storage; settings: for Change of potency over storage time (in words): storage at 40° C. and 75% RH up to 1 month
Protocol: Storage conditions were 40° C. and 75% RH. The periods of time for storage were 1 week, 2 weeks and 1 month. During these storage periods, samples were stored in opened petri dishes.
After storage in this manner, the moisture and potency of each sample were measured.
A potency test was conducted by the following method. About 0.025 g of each of the type IV crystal obtained in Example 4 and type II crystal and a standard product of S-4661 was precisely measured. Each sample was dissolved in water to precisely 100 mL. 10 mL of each solution was precisely measured, to which 5 ml of internal standard solution was added. As the internal standard solution, aqueous acetaminophen solution (concentration 1/20000:1 g of acetaminophen in 20000 ml of the solution) was used. Thereafter, water was added to each solution to 50 mL. Solutions prepared from the type IV or II crystals were used as sample solutions. A solution prepared from a standard product of S-4661 was used as a standard solution. 10 μL of each of the sample solutions and the standard solution were subjected to liquid chromatography under the following conditions. For the sample solution, the ratio QT of the peak area of S-4661 to the peak area of the internal standard substance was obtained. For the standard solution, the ratio QS of the peak area of S-4661 to the peak area of the internal standard substance was obtained.
Conditions for Operation • Detector: ultraviolet absorptiometer (measurement wavelength: 240 nm) • Column: a stainless steel tube having an inner diameter of about 4.6 mm and a length of about 15 cm was filled with 5 μm of octadecylsilylated silica gel for liquid chromatography (L-column ODS). • Column temperature: a constant temperature of around 25° C. • Mobile phase: 2 mmol/L phosphate buffer pH 5.8/acetonitrile mixture (191:9) • Flow rate: Flow rate was adjusted so that the retention time of S-4661 was about 8 to 9 minutes (about 1 mL/min). • Selection of column: 10 μL of standard solution was used and the operation was conducted under the above-described conditions. A column, which elutes S-4661 and the internal standard substance in this order and has a resolution between S-4661 and the internal standard substance of at least 3, was used.
Potencies were calculated by the following expression.

[2] = Moisture measurement after storage (Karl Fischer water determination); settings: for Moisture absorption (in words): storage at 40° C. and 75% RH up to 1 month
Protocol: Storage conditions were 40° C. and 75% RH. The periods of time for storage were 1 week, 2 weeks and 1 month. During these storage periods, samples were stored in opened petri dishes. After storage in this manner, the moisture and potency of each sample were measured. The moisture was measured according to REQUIREMENT FOR ANTIBIOTIC PRODUCTS OF JAPAN General Tests MOISTURE DETERMINATION II Water determination. Note that Karl Fischer formamide methanol mixture II was used as the solvent.

[3] = Assessment of storage stability of crystals; settings: for Storage stability (in words): compared to conventional type I or II crystals
Protocol: The storage stability of the thus-obtained crystal of the present invention was assessed.
Hereinafter, a result of evaluation of comparing the stability of the crystals of the present invention with that of a conventional crystal (type II crystal) is specifically shown.
The stability of type II crystal of S4661 (conventional crystal) was compared with that of the type IV crystal obtained in the above-described Example 4.

[4] = 1 month storage at 40° C. and 75% RH, opened petri dish
[5] = 1 week storage at 40° C. and 75% RH, opened petri dish
[6] = 2 weeks storage at 40° C. and 75% RH, opened petri dish

Row | Structure (SMILES) | Potency [1, 4] | Potency [1, 5] | Potency [1, 6] | Potency ([1]; Initial time, before storage) | Change of potency over storage time (in words) ([1]; listed as type IV crystal) | Moisture [2, 4] | Moisture [2, 5] | Moisture [2, 6] | Moisture ([2]; Initial time, before storage) | Moisture absorption (in words) ([2]; listed as type IV crystal) | Storage stability (in words) ([3]; listed as type IV crystal) | Stability relative to type II crystal (other test results, in words) ([3]; other test results) | Change of potency over storage time (in words) ([1]; listed as type II crystal) | Moisture level at which moisture became constant ([2]; after about two weeks at 40° C. and 75% RH) | Moisture absorption (in words) ([2]; listed as type II crystal) | Storage stability (in words) ([3]; listed as type III crystal)
1 | C[C@@H](O)[C@H]1C(=O)N2C(C(=O)O)=C(S[C@@H]3CN[C@H](CNS(N)(=O)=O)C3)[C@H](C)[C@H]12 [Type IV, (+)-(4R,5S,6S)-6-[(1R)-1-hydroxyethyl]-4-methyl-7-oxo-3[[(3S,5S)-5-(sulfamoylaminomethyl)pyrrolidin-3-yl]thio]-1-azabicyclo[3.2.0]hept-2-ene-2-carboxylic acid] | 981.5 µg/mg | 990.8 µg/mg | 992.4 µg/mg | 993.3 µg/mg | no significant change | 4.99% | 4.79% | 4.89% | 4.62% | absorbs substantially no moisture | more excellent storage stability | more stable than the type II crystal |  |  |  | 
2 | C[C@@H](O)[C@H]1C(=O)N2C(C(=O)O)=C(S[C@@H]3CN[C@H](CNS(N)(=O)=O)C3)[C@H](C)[C@H]12 [Type II, (+)-(4R,5S,6S)-6-[(1R)-1-hydroxyethyl]-4-methyl-7-oxo-3[[(3S,5S)-5-(sulfamoylaminomethyl)pyrrolidin-3-yl]thio]-1-azabicyclo[3.2.0]hept-2-ene-2-carboxylic acid] | 826.4 µg/mg | 956.2 µg/mg | 923.0 µg/mg | 983.2 µg/mg |  | 10.31% | 9.51% | 10.36% | 4.56% |  |  |  | decreased over time | about 10% | absorbs moisture | 
3 | C[C@@H](O)[C@H]1C(=O)N2C(C(=O)O)=C(S[C@@H]3CN[C@H](CNS(N)(=O)=O)C3)[C@H](C)[C@H]12 [Type III, (+)-(4R,5S,6S)-6-[(1R)-1-hydroxyethyl]-4-methyl-7-oxo-3[[(3S,5S)-5-(sulfamoylaminomethyl)pyrrolidin-3-yl]thio]-1-azabicyclo[3.2.0]hept-2-ene-2-carboxylic acid] |  |  |  |  |  |  |  |  |  |  |  |  |  |  |  | excellent storage stability as compared to conventional type I or II crystals
